Reference: PubChem BioAssay (NCI)
Values joined by “and” are separate entries in the source; they are usually repeats but may differ in a detail not shown here. Identical values can stand only once.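 Protocol summary: plate cells (96-well), add compound at 5 concentrations, incubate 48 h, interpolate endpoints linearly. GI50 is the concentration that inhibits growth by half. TGI marks complete inhibition of growth.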 Active and inactive are the calls of the source. Cut-off read from the data, not from the text of the source: active = GI50 below about 0.43 µM; inactive = the rest.

Columns and labels:
Experiment in all cases: DTP human tumour cell line panel, 48 h
RPMI-8226 leukemia = system: RPMI-8226 leukemia
CAKI-1 renal = system: CAKI-1 renal
NCI-H522 lung = system: NCI-H522 lung
HCT-116 colon = system: HCT-116 colon
NCI-H226 lung = system: NCI-H226 lung
OVCAR-4 ovarian = system: OVCAR-4 ovarian
K-562 leukemia = system: K-562 leukemia
EKVX NSCLC = system: EKVX NSCLC
T-47D breast = system: T-47D breast

Row | Structure (SMILES) | GI50 (RPMI-8226 leukemia) | TGI (RPMI-8226 leukemia) | GI50 (CAKI-1 renal) | TGI (CAKI-1 renal) | GI50 (NCI-H522 lung) | TGI (NCI-H522 lung) | GI50 (HCT-116 colon) | TGI (HCT-116 colon) | GI50 (NCI-H226 lung) | TGI (NCI-H226 lung) | GI50 (OVCAR-4 ovarian) | TGI (OVCAR-4 ovarian) | GI50 (K-562 leukemia) | TGI (K-562 leukemia) | GI50 (EKVX NSCLC) | TGI (EKVX NSCLC) | GI50 (T-47D breast) | TGI (T-47D breast) | outcome (HCT-116 colon) | outcome (OVCAR-4 ovarian)
1 | Nc1nccc(-c2c(-c3ccc(F)cc3)ncn2C2CCC(O)CC2)n1 (stereo not drawn) | 11.7 µM | > 25 µM | 7.13 µM | > 25 µM | 5.49 µM | > 23.1 µM | 9.75 µM | > 25 µM | 5.45 µM | 24.5 µM | 2.92 µM | > 25 µM | 11.9 µM | > 25 µM | 8.57 µM | > 25 µM | 3.56 µM | > 19 µM |  | 
2 | COc1ccc(C(=O)C#Cc2cnc(OC)nc2OC)cc1 | 40100 µM | 5.2 µM | 25300 µM |  | 12700 µM |  |  | 2.75 µM | 16900 µM |  |  | 94.4 µM | 12100 µM |  | 23700 µM |  |  | 61400 µM | inactive | inactive
3 | COc1ccc(-c2onc(N)c2-c2cc(OC)c3c(c2)OCO3)cc1 | 3.51 µM | > 86 µM | 3.58 µM | > 100 µM | 1.07 µM | 5.39 µM | 2.32 µM | 50 µM | 14.2 µM | > 100 µM | 13.6 µM | > 96 µM | 0.473 µM | > 100 µM | 6.58 µM | > 100 µM | 4.65 µM | > 100 µM |  | 
4 | O=C1CCC(N2C(=O)c3ccccc3C2=O)C(=O)N1CO (stereo not drawn) | 25.1 µM | 78.7 µM | 94.7 µM | > 100 µM | > 100 µM | > 100 µM | 21.2 µM | 45.4 µM | > 100 µM | > 100 µM | > 100 µM | > 100 µM | > 100 µM | > 100 µM | > 100 µM | > 100 µM | 78 µM | > 100 µM |  | 
5 | COc1cc2cc(Oc3ccc(NC(=O)Nc4ccc(Cl)c(C(F)(F)F)c4)cc3)c(C)nc2cc1OCCN1CCOCC1 | 0.936 µM | 4.34 µM | 1.8 µM | 10.8 µM | 1.43 µM | 4.07 µM | 1.2 µM | 10.8 µM | 1.86 µM | 5.91 µM | 0.582 µM | 3.41 µM | 0.669 µM | 6.95 µM | 2.07 µM | 13.7 µM | 1.32 µM | 5.2 µM |  | 
6 | CC[C@@]1(c2ccccc2)C2=C(CC(C)(C)CC2=O)Nc2[nH]ncc21 | > 100 µM | > 100 µM | 51.9 µM | > 100 µM | > 100 µM | > 100 µM | > 100 µM | > 100 µM | > 100 µM | > 100 µM | > 100 µM | > 100 µM | > 100 µM | > 100 µM | > 100 µM | > 100 µM | > 100 µM | > 100 µM |  | 
7 | Cc1cc(Cl)cc2c1NC(=O)C2(O)CC(=O)c1ccco1 (stereo not drawn) |  | > 83.7 µM |  | > 100 µM |  | > 100 µM |  | > 100 µM |  | > 100 µM |  | 23.9 µM |  | 54.6 µM |  | > 100 µM |  | > 100 µM |  | 
8 | CCCCCCCC[C@@H](O)CC(=O)N[C@@H](CC(N)=O)C(=O)N[C@@H](CCC(N)=O)C(=O)N[C@@H](CC(=O)c1cc(C)cc(O)c1C(=O)c1c(O)cccc1O)CC(C)C | 0.0926 µM | 0.883 µM | 1.51 µM | > 100 µM | 0.228 µM | 0.815 µM | 0.303 µM | 1.78 µM | 0.237 µM | 0.746 µM | 2.07 µM | > 100 µM | 0.408 µM | > 100 µM | 3.35 µM | 75.5 µM | 1.15 µM | 4.51 µM |  | 
9 | O=C(O)c1nn(-c2ccccc2-c2n[nH]c(=O)[nH]c2=O)c(=O)[nH]c1=O |  | > 100 µM |  | > 100 µM |  | > 100 µM |  | > 100 µM |  | > 100 µM |  | > 100 µM |  | > 100 µM |  | > 100 µM |  | > 100 µM |  | 
10 | CCCCCCCC(=O)OCC/C=C/C1OC1C1OC(=O)/C=C\C=C\c2nc(oc2C)/C=C(/C)CCC2OC2C1OC(=O)NC(C)=O (stereo not drawn) | 0.0241 µM | 1.04 µM | 0.0664 µM | 1.56 µM | 0.0192 µM | 0.0755 µM | 0.00922 µM | 0.368 µM | 0.0426 µM | 0.161 µM | 0.0766 µM | 2.21 µM | 0.0304 µM | 1.51 µM | 0.0419 µM | 1.64 µM | 0.042 µM | 0.161 µM |  | 
11 | CCCCCCCCn1ccc2cc(NC(=O)Cn3cc(CN4CCCC4)nn3)ccc21 | 2.18 µM | 5.17 µM | 1.76 µM | 3.28 µM | 1.75 µM | 3.6 µM | 1.7 µM | 3.32 µM | 1.59 µM | 3.16 µM | 4.97 µM | 18.1 µM | 1.91 µM | 3.9 µM | 1.82 µM | 4 µM | 1.73 µM | 3.76 µM |  | 
12 | CC/C=C\C[C@@H](O)C/C=C1/C(=O)C=C[C@H]1C/C=C\CCCC(=O)OC | 1.83 µM | 7.4 µM | 3.57 µM | 13.5 µM | 1.65 µM | 3.97 µM | 0.498 µM | 2.53 µM | 2.14 µM | 5.04 µM | 4.21 µM | 16.9 µM | 0.987 µM | 10.1 µM | 9.14 µM | 21.1 µM | 4.05 µM | 19 µM |  | 
13 | O=C(O)/C=C(\c1nc2ccc([N+](=O)[O-])cc2[nH]1)c1cc(Cl)ccc1O | 1.45 µM | 37.7 µM |  |  | 1.17 µM | 5.03 µM | 2.35 µM | 7.03 µM | 2.32 µM | 46.4 µM | 2.72 µM | 36.6 µM | 2.8 µM | 16.6 µM | 2.44 µM | 28.2 µM | 2.3 µM | 9.38 µM |  | 
14 | CC(=O)O[C@H]1C(=O)[C@@]2(C)C(C(OC(=O)c3ccccc3)[C@]3(O)CC(OC(=O)[C@H](OC(=O)CCC(=O)O)C(NC(=O)c4ccccc4)c4ccccc4)C(C)=C1C3(C)C)C1(OC(C)=O)COC1C[C@@H]2O (stereo partly drawn) |  | < 0.01 µM |  | > 100 µM |  | < 0.01 µM |  | > 100 µM |  | > 100 µM |  | > 100 µM |  |  | 0.121 µM and 0.875 µM | > 100 µM |  | > 100 µM |  | 
15 | COc1ccc(-c2nc(-c3nc4ccc(Cl)cc4[nH]3)c3ccccn23)cc1 | 3.55 µM | 58.3 µM | 2.09 µM | 5.03 µM | 4.24 µM | 18.4 µM | 2.41 µM | 5.5 µM | 1.94 µM | 4.46 µM | 1.89 µM | 4.74 µM | 5.4 µM | 80.1 µM |  |  | 3.66 µM | 20.2 µM |  | 
